Laboratory results published in publication PMC4432651, “Dynamic interplay between catalytic and lectin domains of GalNAc-transferases modulates protein O-glycosylation” (Nature Communications, 2015).
Where a SMILES comes first, the peptide text is derived from it. The star is where a group is joined. αGalNAc = CC(=O)N[C@@H]1[C@@H](O)[C@@H](O)[C@@H](CO)O[C@@H]1*

Molecular target: T1, GalNAc-T2 (Homo sapiens, UniProt Q10471)
T1 construct: made in house
Assay: Time-lapse AFM of single GalNAc-T2 molecules with ligands
Conditions: GalNAc-T2 2.0 nM on mica, PBS pH 7.4, 20 °C
Method: AFM measurements were performed using a MultiMode 8 AFM system (Bruker). […] Additional details are in Supplementary Methods. […]
simulations were performed with the acceptor amino acid – UDPGalNAc distance and the RMSD of the Cα peptide carbon atoms as collective variables.
The values of the height and width of the Gaussian-like biasing potential were selected as 1.0 kcal·mol -1 and 0.25 Å, respectively. A temperature window of ΔT = 25000 K for the well-tempered algorithm was used together with a deposition time of 1 ps. The simulation was continued until the system completely explored the free energy landscape several times which, in terms of the simulation time, corresponds to approximately 100 ns for each metadynamics run.
Atomic Force Microscopy Imaging
In Tapping Mode image operation the cantilever driven by a piezoelectric actuator vibrates near its resonance frequency. Upon approaching the sample, the tip briefly touches the surface at the bottom of each swing, resulting in a decrease in oscillation amplitude. […]
AFM scanning requires the sample be immobilized on a nanoflat surface not to be swept away. […] The concentration of the protein incubated on the mica sheets was suitable to get isolated features that could be analyzed individually. […]
GalNAc-T2 presents a net positive charge at the working pH conditions due to its theoretical isoelectric point of 8.3. The immobilization of enzymes on mica was previously evaluated observing clearly they preserve the enzymatic activity5.
To determine how the ligands affect the conformational dynamics of GalNAc-T2, the enzyme was also incubated with ligands for 10 min under mild stirring at room temperature. […] AFM images were further analyzed by using the WSxM software6. […] At least 10 images of 10 different areas of 500 nm2 were analyzed for every sample and environment. Furthermore, each feature or associate was analyzed in detail with the zoom function of the WSxM program, performed without losing image information and or the discarding of artifacts. […]

T1 sequence (Q10471 75-571 limits assumed): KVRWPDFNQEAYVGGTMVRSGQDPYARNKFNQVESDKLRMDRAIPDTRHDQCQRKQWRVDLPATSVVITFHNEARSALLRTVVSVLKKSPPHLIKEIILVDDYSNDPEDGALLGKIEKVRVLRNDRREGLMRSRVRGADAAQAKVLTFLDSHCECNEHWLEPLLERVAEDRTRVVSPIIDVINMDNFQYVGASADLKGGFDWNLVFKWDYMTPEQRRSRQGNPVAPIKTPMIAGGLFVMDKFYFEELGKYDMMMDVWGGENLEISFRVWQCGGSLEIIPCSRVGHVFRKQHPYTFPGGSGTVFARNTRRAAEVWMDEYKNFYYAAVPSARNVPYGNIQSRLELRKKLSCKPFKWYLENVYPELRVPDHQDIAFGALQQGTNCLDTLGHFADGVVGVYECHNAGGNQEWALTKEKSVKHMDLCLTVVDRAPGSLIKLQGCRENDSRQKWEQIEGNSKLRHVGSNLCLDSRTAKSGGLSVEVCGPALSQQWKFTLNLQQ

Compound	conformational states of GalNAc-T2 observed (peptide alone or in combination with UDP/Mn+2, peptides 10.0 nM)	conformational states of GalNAc-T2 observed (in the presence of Mn+2, UDP, UDP-GalNAc and MnCl2 20.0 nM)
CC(=O)NCC(=O)N[C@H](C(=O)N[C@H](C(=O)N1CCC[C@H]1C(=O)N[C@@H](CO)C(=O)N1CCC[C@H]1C(=O)N[C@H](C(=O)N1CCC[C@H]1C(=O)N[C@H](C(=O)N[C@H](C(=O)N[C@@H](CO)C(=O)N[C@H](C(=O)N[C@H](C(=O)N[C@@H](CO)C(=O)N[C@@H](C)C(N)=O)[C@@H](C)O[C@H]1O[C@H](CO)[C@H](O)[C@H](O)[C@H]1NC(C)=O)[C@@H](C)O)[C@@H](C)O)[C@@H](C)O)C(C)C)[C@@H](C)O)[C@@H](C)O [MUC5AC-13] (Ac-GTTPSPVPTTSTT(αGalNAc)SA-NH2; N-terminus assumed)	three different conformational states are present	
O=c1ccn([C@@H]2O[C@H](COP(=O)(O)OP(=O)(O)O)[C@@H](O)[C@H]2O)c(=O)[nH]1 [UDP, uridine diphosphate, reference compound]		either the very compact or the compact structure
